Source: ChEMBL document CHEMBL1201862, “PubChem BioAssay data set” (2004)
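Protocol summary: plate cells (96-well), add compound at 5 concentrations, incubate 48 h, interpolate endpoints linearly. Abbreviation: GI50, concentration required for 50% inhibition of growth.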 Activity calls are given as the source filed them. No stated cut-off is given here; in the data, active = GI50 up to about 1.1 µM and inactive = higher.

What was measured:
Assay in all cases: inhibition of tumour cell growth, NCI panel, 48 h
A549 = tested on: A549
K562 = tested on: K562
UACC-257 = tested on: UACC-257
COLO 205 = tested on: COLO 205
HCT-116 = tested on: HCT-116
NCI-H460 = tested on: NCI-H460
NCI-H226 = tested on: NCI-H226
DMS-273 = tested on: DMS-273
NCI-H522 = tested on: NCI-H522
HOP-92 = tested on: HOP-92
U-251 = tested on: U-251
NCI-H23 = tested on: NCI-H23
SW-620 = tested on: SW-620
ACHN = tested on: ACHN
IGROV-1 = tested on: IGROV-1
SK-MEL-5 = tested on: SK-MEL-5
SF-295 = tested on: SF-295
KM12 = tested on: KM12
NCI/ADR-RES = tested on: NCI/ADR-RES
T47D = tested on: T47D

SMILES | GI50 (A549) | GI50 (K562) | GI50 (UACC-257) | GI50 (COLO 205) | GI50 (HCT-116) | GI50 (NCI-H460) | GI50 (NCI-H226) | GI50 (DMS-273) | GI50 (NCI-H522) | GI50 (HOP-92) | GI50 (U-251) | GI50 (NCI-H23) | GI50 (SW-620) | GI50 (ACHN) | GI50 (IGROV-1) | GI50 (SK-MEL-5) | GI50 (SF-295) | GI50 (KM12) | GI50 (NCI/ADR-RES) | GI50 (T47D)
CC(=O)NC(CCCN)C(=O)NCc1ccccc1 (centres undefined) | > 100 µM (inactive) | > 100 µM (inactive) | > 100 µM (inactive) | > 100 µM (inactive) | > 100 µM (inactive) | > 100 µM (inactive) | > 100 µM (inactive) | > 100 µM (inactive) | > 100 µM (inactive) | > 100 µM (inactive) | > 100 µM (inactive) | > 100 µM (inactive) | > 100 µM (inactive) | > 100 µM (inactive) | > 100 µM (inactive) | > 100 µM (inactive) | > 100 µM (inactive) | > 100 µM (inactive) | – | –
COc1ccc(C(=O)Nc2ccn(CCOC(=O)c3ccc(OC)cc3)c(=O)n2)cc1 | > 100 µM (inactive) | > 100 µM (inactive) | > 100 µM (inactive) | > 100 µM (inactive) | > 100 µM (inactive) | > 100 µM (inactive) | > 100 µM (inactive) | > 100 µM (inactive) | 46.1 µM (inactive) | 63 µM (inactive) | 86.7 µM (inactive) | – | > 100 µM (inactive) | > 100 µM (inactive) | > 100 µM (inactive) | > 100 µM (inactive) | 58.9 µM (inactive) | > 100 µM (inactive) | – | –
CC(C)C1COC(C(C)(C)C2=N[C@@H](C(C)C)CO2)=N1 (some centres undefined) | > 100 µM (inactive) | > 100 µM (inactive) | > 100 µM (inactive) | > 100 µM (inactive) | > 100 µM (inactive) | > 100 µM (inactive) | > 100 µM (inactive) | > 100 µM (inactive) | > 100 µM (inactive) | 70.3 µM (inactive) | > 100 µM (inactive) | > 100 µM (inactive) | > 100 µM (inactive) | > 100 µM (inactive) | > 100 µM (inactive) | > 100 µM (inactive) | > 100 µM (inactive) | > 100 µM (inactive) | – | –
CC1=C(C(=O)Nc2cc(F)c(F)cc2F)C(c2ccc(N(C)C)cc2)C(C(=O)Nc2cc(F)c(F)cc2F)=C(C)N1 | 16.4 µM (inactive) | 23.6 µM (inactive) | 25.5 µM (inactive) | 43.2 µM (inactive) | – | 30.3 µM (inactive) | 20.6 µM (inactive) | 26.9 µM (inactive) | 19.8 µM (inactive) | 0.53 µM (active) | 28.9 µM (inactive) | 20.9 µM (inactive) | 28.8 µM (inactive) | 19.4 µM (inactive) | 35.5 µM (inactive) | 17.8 µM (inactive) | 24.3 µM (inactive) | 19.9 µM (inactive) | – | –
CCNC(=O)/C=C/CCC#Cc1ccc(-c2ccc(-c3cccs3)s2)s1 | > 100 µM (inactive) | – | > 100 µM (inactive) | 1.63 µM (inactive) | > 100 µM (inactive) | > 100 µM (inactive) | > 100 µM (inactive) | > 100 µM (inactive) | > 100 µM (inactive) | > 100 µM (inactive) | > 100 µM (inactive) | > 100 µM (inactive) | > 100 µM (inactive) | > 100 µM (inactive) | > 100 µM (inactive) | 5.24 µM (inactive) | > 100 µM (inactive) | > 100 µM (inactive) | – | –
COC(=O)c1ccccc1NC(=O)C(=O)CC(=O)c1ccccc1NC1=CC(=O)C(=O)c2ccccc21 | 16.3 µM (inactive) | 2.91 µM (inactive) | 6.05 µM (inactive) | 31.9 µM (inactive) | 4.67 µM (inactive) | 19.7 µM (inactive) | 25.9 µM (inactive) | 10.7 µM (inactive) | 5.22 µM (inactive) | 5.16 µM (inactive) | 11.1 µM (inactive) | 5.09 µM (inactive) | 5.4 µM (inactive) | 14.5 µM (inactive) | 13.2 µM (inactive) | 5.13 µM (inactive) | 15.6 µM (inactive) | 15.2 µM (inactive) | 2.33 µM (inactive) | 18.7 µM (inactive)
C=CCN1C(=O)CS/C1=N\NC(=O)c1c(C)nc2sccn12 | > 100 µM (inactive) | > 100 µM (inactive) | > 100 µM (inactive) | > 100 µM (inactive) | > 100 µM (inactive) | > 100 µM (inactive) | > 100 µM (inactive) | > 100 µM (inactive) | > 100 µM (inactive) | > 100 µM (inactive) | > 100 µM (inactive) | > 100 µM (inactive) | > 100 µM (inactive) | > 100 µM (inactive) | > 100 µM (inactive) | > 100 µM (inactive) | > 100 µM (inactive) | > 100 µM (inactive) | – | –
CCOCC(=O)N[C@H]1CCc2cc(OC)c(OC)c(OC)c2-c2ccc(OC)c(=O)cc21 | 0.0211 µM (active) | < 0.0128 µM (active) | 0.0377 µM (active) | 0.0137 µM (active) | 0.014 µM (active) | 0.0165 µM (active) | 0.0762 µM (active) | 0.0128 µM (active) | 0.0143 µM (active) | 0.0303 µM (active) | 0.0173 µM (active) | 0.0132 µM (active) | 0.0169 µM (active) | 0.0962 µM (active) | 0.0241 µM (active) | 0.0133 µM (active) | 0.0206 µM (active) | 0.0129 µM (active) | 0.982 µM (active) | > 100 µM (inactive)
c1ccc2c(NCCCCCCCCNc3c4ccccc4nc4ccccc34)c3ccccc3nc2c1 | 0.0948 µM (active) | 0.0469 µM (active) | 1.37 µM (inactive) | 0.113 µM (active) | 0.0392 µM (active) | 0.0428 µM (active) | 1.35 µM (inactive) | 0.043 µM (active) | < 0.0247 µM (active) | 1.48 µM (inactive) | 0.184 µM (active) | 0.257 µM (active) | 0.0506 µM (active) | 0.0703 µM (active) | 0.0927 µM (active) | 1.39 µM (inactive) | 0.693 µM (active) | 0.187 µM (active) | 4.15 µM (inactive) | 0.59 µM (active)
Nc1nnc2nc(CC(=O)/C=C/c3ccccc3)c(=O)[nH]n12 | > 100 µM (inactive) | > 100 µM (inactive) | > 100 µM (inactive) | > 100 µM (inactive) | > 100 µM (inactive) | > 100 µM (inactive) | > 100 µM (inactive) | > 100 µM (inactive) | > 100 µM (inactive) | > 100 µM (inactive) | > 100 µM (inactive) | > 100 µM (inactive) | > 100 µM (inactive) | > 100 µM (inactive) | > 100 µM (inactive) | > 100 µM (inactive) | > 100 µM (inactive) | > 100 µM (inactive) | – | –
CC(=O)OCC1OC(N2C(=O)/C(=N\NC(N)=S)c3ccc([N+](=O)[O-])cc32)C(OC(C)=O)C1OC(C)=O (centres undefined) | 40.8 µM (inactive) | 18.7 µM (inactive) | 37.4 µM (inactive) | 31 µM (inactive) | 13.7 µM (inactive) | 20.1 µM (inactive) | 28.6 µM (inactive) | 17.4 µM (inactive) | 15 µM (inactive) | 43.4 µM (inactive) | 28.1 µM (inactive) | 16.4 µM (inactive) | 36.9 µM (inactive) | 30.7 µM (inactive) | 48.8 µM (inactive) | 32 µM (inactive) | 29.1 µM (inactive) | 38.5 µM (inactive) | – | –
COc1cccc2nc3cc(C)c(C)cc3nc12 | > 100 µM (inactive) | > 100 µM (inactive) | > 100 µM (inactive) | > 100 µM (inactive) | > 100 µM (inactive) | > 100 µM (inactive) | > 100 µM (inactive) | > 100 µM (inactive) | 95.9 µM (inactive) | > 100 µM (inactive) | > 100 µM (inactive) | > 100 µM (inactive) | > 100 µM (inactive) | > 100 µM (inactive) | > 100 µM (inactive) | 97.5 µM (inactive) | > 100 µM (inactive) | > 100 µM (inactive) | – | –
CC1(CO)C(=O)OC12CCCCC2 (centres undefined) | > 100 µM (inactive) | > 100 µM (inactive) | > 100 µM (inactive) | > 100 µM (inactive) | > 100 µM (inactive) | – | > 100 µM (inactive) | > 100 µM (inactive) | > 100 µM (inactive) | > 100 µM (inactive) | – | > 100 µM (inactive) | > 100 µM (inactive) | – | > 100 µM (inactive) | – | > 100 µM (inactive) | > 100 µM (inactive) | – | –
O=C1N2Cc3c4ccc5c3CN3C(=O)N6Cc7c(ccc(c7CN1C6(c1ccccc1)C23c1ccccc1)OCCOCCOc1cc(Br)c(Br)cc1OCCOCCO4)OCCOCCOc1cc(Br)c(Br)cc1OCCOCCO5 (centres undefined) | > 100 µM (inactive) | > 100 µM (inactive) | > 100 µM (inactive) | – | > 100 µM (inactive) | > 100 µM (inactive) | > 100 µM (inactive) | > 100 µM (inactive) | > 100 µM (inactive) | 39.2 µM (inactive) | > 100 µM (inactive) | > 100 µM (inactive) | 15.1 µM (inactive) | 47.8 µM (inactive) | 44 µM (inactive) | 44.3 µM (inactive) | – | > 100 µM (inactive) | – | –
